From PubChem BioAssay (NCI)
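The compound was tested at five concentrations on cells cultured in 96-well plates, with a 48-hour exposure period. GI50 is the concentration that inhibits growth by half. TGI: concentration producing complete growth inhibition.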

How the values were obtained:
Test in all cases: inhibition of tumour cell growth, NCI panel, 48 h
[1] = test system: 786-0 renal
[2] = test system: A498 renal
[3] = test system: A549 NSCLC
[4] = test system: ACHN renal
[5] = test system: BT-549 breast
[6] = test system: CAKI-1 renal
[7] = test system: CCRF-CEM leukemia
[8] = test system: COLO 205 colon
[9] = test system: DU-145 prostate
[10] = test system: HCC-2998 colon
[11] = test system: HCT-116 colon
[12] = test system: HCT-15 colon
[13] = test system: HL-60(TB) leukemia
[14] = test system: HOP-62 NSCLC
[15] = test system: HOP-92 NSCLC
[16] = test system: HS 578T breast
[17] = test system: HT29 colon
[18] = test system: IGROV1 ovarian
[19] = test system: K-562 leukemia
[20] = test system: KM12 colon
[21] = test system: LOX IMVI melanoma
[22] = test system: M14 melanoma
[23] = test system: MALME-3M melanoma
[24] = test system: MCF7 breast
[25] = test system: MDA-MB-231 breast
[26] = test system: MDA-MB-435
[27] = test system: MOLT-4 leukemia
[28] = test system: NCI-H226 lung
[29] = test system: NCI-H23 lung
[30] = test system: NCI-H460 lung
[31] = test system: NCI-H522 lung
[32] = test system: NCI/ADR-RES ovarian
[33] = test system: OVCAR-3 ovarian
[34] = test system: OVCAR-4 ovarian
[35] = test system: OVCAR-5 ovarian
[36] = test system: OVCAR-8 ovarian
[37] = test system: PC-3 prostate
[38] = test system: RPMI-8226 leukemia
[39] = test system: RXF 393 renal
[40] = test system: SF-268 CNS
[41] = test system: SF-295 CNS
[42] = test system: SF-539 CNS
[43] = test system: SK-MEL-2 melanoma
[44] = test system: SK-MEL-28 melanoma
[45] = test system: SK-MEL-5 melanoma
[46] = test system: SK-OV-3 ovarian
[47] = test system: SN12C renal
[48] = test system: SNB-19 CNS
[49] = test system: SNB-75 CNS
[50] = test system: SR leukemia
[51] = test system: SW-620 colon
[52] = test system: T-47D breast
[53] = test system: TK-10 renal
[54] = test system: U251 CNS
[55] = test system: UACC-257 melanoma
[56] = test system: UACC-62 melanoma
[57] = test system: UO-31 renal

`COc1cc(-c2nn(-c3cccc(NC(=O)c4ccc(N5CCOCC5)c(C(F)(F)F)c4)c3)cc2-c2ccncc2)ccc1Cl` gave a GI50 [1] of 561 nM, a TGI [1] of 2810 nM and a GI50 [2] of 103 nM. For the same compound, the TGI [2] was 765 nM, the GI50 [3] was 287 nM and the TGI [3] was greater than 36900 nM. For the same compound, the GI50 [4] was 585 nM, the TGI [4] was greater than 100000 nM and the GI50 [5] was 932 nM. The TGI [5] was greater than 42000 nM, the GI50 [6] was 293 nM and the TGI [6] was 3190 nM. It also gave a GI50 [7] of 236 nM, a TGI [7] greater than 100000 nM and a GI50 [8] of 446 nM. It also gave a TGI [8] of 1690 nM, a GI50 [9] of 379 nM and a TGI [9] greater than 39300 nM. It also gave a GI50 [10] of 1500 nM, a TGI [10] of 7000 nM and a GI50 [11] of 299 nM. For the same compound, the TGI [11] was greater than 32900 nM, the GI50 [12] was 226 nM and the TGI [12] was greater than 100000 nM. The GI50 [13] was 233 nM, the GI50 [14] was 524 nM and the TGI [14] was greater than 58600 nM. The GI50 [15] was 128 nM, the TGI [15] was 952 nM and the GI50 [16] was 257 nM. The GI50 [17] was 466 nM, the TGI [17] was 2190 nM and the GI50 [18] was 405 nM. It also gave a TGI [18] of 9810 nM, a GI50 [19] of 55.5 nM and a TGI [19] greater than 100000 nM. It also gave a GI50 [20] of 213 nM, a TGI [20] of 8780 nM and a GI50 [21] of 371 nM. For the same compound, the TGI [21] was 6200 nM, the GI50 [22] was 346 nM and the TGI [22] was 13800 nM. The GI50 [23] was 76.9 nM, the TGI [23] was 1540 nM and the GI50 [24] was 263 nM. It also gave a TGI [24] greater than 100000 nM, a GI50 [25] of 384 nM and a TGI [25] of 3540 nM. It also gave a GI50 [26] of 25.2 nM, a TGI [26] of 82.7 nM and a GI50 [27] of 669 nM. The TGI [27] was greater than 100000 nM, the GI50 [28] was 1070 nM and the TGI [28] was 99200 nM. For the same compound, the GI50 [29] was 826 nM, the TGI [29] was 34200 nM and the GI50 [30] was 299 nM. The TGI [30] was greater than 20400 nM, the GI50 [31] was 60.6 nM and the TGI [31] was 915 nM. The GI50 [32] was 203 nM, the TGI [32] was greater than 100000 nM and the GI50 [33] was 147 nM. For the same compound, the TGI [33] was 1190 nM, the GI50 [34] was 1510 nM and the TGI [34] was greater than 100000 nM. The GI50 [35] was 1200 nM, the TGI [35] was greater than 86400 nM and the GI50 [36] was 468 nM. The TGI [36] was greater than 100000 nM, the GI50 [37] was 166 nM and the TGI [37] was 5220 nM. For the same compound, the GI50 [38] was 269 nM, the TGI [38] was greater than 100000 nM and the GI50 [39] was 207 nM. For the same compound, the TGI [39] was 809 nM, the GI50 [40] was 559 nM and the TGI [40] was greater than 48100 nM. For the same compound, the GI50 [41] was 150 nM, the TGI [41] was 1150 nM and the GI50 [42] was 181 nM. It also gave a TGI [42] of 552 nM, a GI50 [43] of 210 nM and a TGI [43] of 2460 nM. The GI50 [44] was 936 nM, the TGI [44] was greater than 84800 nM and the GI50 [45] was 126 nM. The TGI [45] was 966 nM, the GI50 [46] was 345 nM and the TGI [46] was 5340 nM. The GI50 [47] was 709 nM, the TGI [47] was greater than 75800 nM and the GI50 [48] was 570 nM. For the same compound, the TGI [48] was greater than 100000 nM, the GI50 [49] was 81.8 nM and the TGI [49] was 572 nM. For the same compound, the GI50 [50] was 36.9 nM, the TGI [50] was greater than 100000 nM and the GI50 [51] was 168 nM. For the same compound, the TGI [51] was greater than 56900 nM, the GI50 [52] was 471 nM and the TGI [52] was greater than 28900 nM. The GI50 [53] was 1220 nM, the TGI [53] was 19500 nM and the GI50 [54] was 360 nM. It also gave a TGI [54] of 4320 nM, a GI50 [55] of 496 nM and a TGI [55] of 6860 nM. The GI50 [56] was 207 nM, the TGI [56] was 7070 nM and the GI50 [57] was 322 nM. It also gave a TGI [57] of 8770 nM.
